# Read-outs that look alike come from different tables or passages of the source.
# Experiments:
# [1] = system: albumin; experiment: Albumin denaturation studies
# Procedure: The synthesized compounds were evaluated for the inhibition of albumin denaturation. Test tubes containing 1 mL of albumin solution (1% w/v in phosphate buffer pH=7.4), buffer, and 20 μL of the tested compounds dissolved in DMSO are incubated at 37°C for 15 minutes (final concentration 100 µM). The incubation follows at 60°C for another 15 minutes to induce albumin denaturation. The samples are cooled to room temperature. Their absorbance was measured at 660 nm. DMSO was used as a blank solution and acetylsalicylic acid as a reference compound. The results are given in Table S1 in the supplementary material.
# Protein denaturation has correlated well with the inflammatory response, leading to various inflammatory diseases. It is known that tissue injury during life might refer to the denaturation of cells' protein constituents or intercellular substances. […] Many anti-inflammatory drugs can inhibit the heat-coagulation of serum albumin [78]. Thus, the inhibition of albumin heat-coagulation activity of the designed molecules was examined in vitro [60] as a measure of their anti-inflammatory activity. The experimental results were compared to the standard drug, acetylsalicylic acid. […] The results are given in Table S1 in the supplementary material.
# [2] = cited from earlier work
# [3] = biological target: T1, soybean lipoxygenase (LOX-1) (Glycine max, UniProt P08170); details: % inhibition at 100 µM; cited from earlier work
# T1 construct: purchased Sigma Chemical, Co. (St Louis, MO, USA)
# T1 sequence (P08170 1-839): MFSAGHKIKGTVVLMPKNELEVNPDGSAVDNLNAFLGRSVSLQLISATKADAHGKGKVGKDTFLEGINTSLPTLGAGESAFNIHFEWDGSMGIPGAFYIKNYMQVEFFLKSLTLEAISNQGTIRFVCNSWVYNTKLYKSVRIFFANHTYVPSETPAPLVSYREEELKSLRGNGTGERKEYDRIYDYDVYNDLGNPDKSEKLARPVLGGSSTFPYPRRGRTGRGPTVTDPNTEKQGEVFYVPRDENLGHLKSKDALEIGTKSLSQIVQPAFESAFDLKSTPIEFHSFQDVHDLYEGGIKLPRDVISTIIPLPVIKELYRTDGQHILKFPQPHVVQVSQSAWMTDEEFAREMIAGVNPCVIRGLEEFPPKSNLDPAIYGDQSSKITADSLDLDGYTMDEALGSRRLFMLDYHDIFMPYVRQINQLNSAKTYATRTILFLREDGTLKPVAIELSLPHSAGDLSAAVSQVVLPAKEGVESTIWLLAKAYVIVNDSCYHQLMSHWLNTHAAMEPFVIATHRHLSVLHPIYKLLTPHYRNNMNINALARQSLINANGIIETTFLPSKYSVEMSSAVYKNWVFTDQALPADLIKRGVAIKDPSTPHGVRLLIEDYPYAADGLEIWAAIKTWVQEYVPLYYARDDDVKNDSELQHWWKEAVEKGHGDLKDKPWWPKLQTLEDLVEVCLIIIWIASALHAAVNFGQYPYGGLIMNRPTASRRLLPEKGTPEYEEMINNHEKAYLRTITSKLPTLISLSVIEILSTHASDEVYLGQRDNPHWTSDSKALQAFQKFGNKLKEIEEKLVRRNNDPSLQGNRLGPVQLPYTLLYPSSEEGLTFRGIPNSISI
# [4] = biological target: T2, ovine COX-2 (Ovis aries, UniProt P79208); experiment: Cyclooxygenase-2 inhibition study; format: biochemical
# T2 construct: purchased Cayman (USA)
# T2 sequence (P79208 17-603): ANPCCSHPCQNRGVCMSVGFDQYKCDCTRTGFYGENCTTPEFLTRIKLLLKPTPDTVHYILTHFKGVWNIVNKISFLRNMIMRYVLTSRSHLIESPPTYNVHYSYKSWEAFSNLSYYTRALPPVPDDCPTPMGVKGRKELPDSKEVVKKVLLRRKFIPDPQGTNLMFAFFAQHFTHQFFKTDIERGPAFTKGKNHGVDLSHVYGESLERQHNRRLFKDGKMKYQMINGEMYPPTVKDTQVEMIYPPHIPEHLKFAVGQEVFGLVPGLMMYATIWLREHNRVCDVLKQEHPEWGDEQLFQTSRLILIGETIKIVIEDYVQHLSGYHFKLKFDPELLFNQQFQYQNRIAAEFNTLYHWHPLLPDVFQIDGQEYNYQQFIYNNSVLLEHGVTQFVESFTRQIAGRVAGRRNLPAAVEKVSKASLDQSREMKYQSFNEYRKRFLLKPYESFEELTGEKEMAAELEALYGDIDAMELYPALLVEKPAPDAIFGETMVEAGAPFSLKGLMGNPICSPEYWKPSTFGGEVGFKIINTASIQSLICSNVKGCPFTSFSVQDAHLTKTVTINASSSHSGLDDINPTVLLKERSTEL
# Procedure: The in vitro study of cyclooxygenase (COX) activity was determined by using arachidonic acid (AA) as the substrate and N,N,N’,N’-tetramethylphenylenediamine (TMPD) as the co-substrate. […] The absorption due to the spontaneous oxidation of TMPD was subtracted from the initial rate of oxidation observed in the presence of AA. […] A blank determination was used first to serve as a negative control. Indomethacin was used as a reference COX-2 inhibitor (positive control).
# The role of COX-2 in neurodegenerative diseases has been reported, and COX-2 inhibition is considered of high importance as a therapeutic tool. The designed derivatives were tested for their COX-2 inhibition activity on the ovine COX-2 enzyme. […] Indomethacin was used as a reference compound.
# [5] = biological target: T1, soybean lipoxygenase (LOX-1); experiment: Soybean lipoxygenase inhibition study; format: biochemical
# Procedure: Our group evaluated an in vitro study as reported previously. The tested hybrids were incubated at room temperature with sodium linoleate (100 µM) and 200 µL of enzyme solution (1/9 X 10^-4 w/v in saline). […] Different concentrations were used for the determination of IC50. A blank determination was used as a negative control.
# Due to the limited work on sufficiently purified human ALOX-5 isoenzyme, most of the published research was performed on the soybean homolog. […] This study used the soybean isoenzyme LOX-1, which exerts maximal activity at pH 9.0 [72].
# [6] = Inhibition of linoleic acid peroxidation (AAPH-induced)
# Procedure: Our group evaluated the in vitro study as reported previously. Ten 16 mM sodium linoleate solution microliters were added to the UV cuvette containing 93 µL of a 0.05 M phosphate buffer, pH 7.4, and 10 µL of the tested compounds (final concentration 100 µM). The oxidation reaction started at 37 °C under air by adding 50 µL of the free radical initiator AAPH (40 mM). Oxidation was carried out and monitored at 234 nm. DMSO under the same conditions was used as a negative control. Trolox was used as the appropriate standard (positive control). The results are given in Table S1 in the supplementary material.
# We used the water-soluble 2, 2’-azobis(2-amidinopropane) hydrochloride (AAPH) to generate in vitro peroxyl radicals through spontaneous thermal decomposition, which resembles cellular lipid peroxidation due to the activity of the undertaken radicals. The anti-lipid peroxidation activities were compared to a well-known antioxidant, i.e., Trolox (Table S1 in the supplementary material). […] In general, the anti-lipid peroxidation ranged from 8-99%. Except for acids 11, 12, 17, 19, 21, 22, 24, 25, and 28, which present high antioxidant activities (on the high % level), the other cinnamic acids present low or medium activity.
structure (smiles),measurement,setting,value
"CC(=O)Oc1ccccc1C(=O)O [Aspirin, acetylsalicylic acid, reference compound]","Albumin denaturation (%, at 100 µM)",[1],31.2%
O=C(O)/C=C/C=C/c1ccccc1 [Compound 23],"AAPH inhibition (%, at 100 µM)",[2],30%
same,LOX inhibition (%),[3],24%
same,inhibition at 100 µM,[4],9%
N#Cc1ccc(/C=C/C(=O)O)cc1 [Compound 26],"AAPH inhibition (%, at 100 µM)",[2],20%
same,inhibition at 100 µM,[5]; read-out: LOX inhibition (%),27%
same,IC50,[4],65 µM
COC(=O)CCCNC(=O)/C=C/c1ccc(O)c(O)c1 [Compound 28b],"Albumin denaturation (%, at 100 µM)",[1],44%
same,"AAPH inhibition (%, at 100 µM)",[6],58%
same,IC50,[4]; read-out: COX-2 inhibition (IC50),100 µM
COC(=O)CCC(NC(=O)C=Cc1ccc(O)c(O)c1)C(=O)OC (stereo not shown) [Compound 28c],"Albumin denaturation (%, at 100 µM)",[1],31%
same,"AAPH inhibition (%, at 100 µM)",[6],87%
same,IC50,[5]; read-out: LOX inhibition (IC50),8.5 µM
same,inhibition at 100 µM,[4],19%
CCOC(=O)CNC(=O)/C=C/c1ccc2c(c1)OC(C)(C)O2 [Compound 29a],"Albumin denaturation (%, at 100 µM)",[1],25%
same,"AAPH inhibition (%, at 100 µM)",[6],80%
same,COX-2 inhibition (%),[4]; % inhibition at 100 µM,38%
COC(=O)CC[C@H](NC(=O)/C=C/c1ccc2c(c1)OC(C)(C)O2)C(=O)OC [Compound 29c],"Albumin denaturation (%, at 100 µM)",[1],75%
same,"AAPH inhibition (%, at 100 µM)",[6],27%

# From publication PMC11348465, “Pharmacochemical Study of Multitarget Amino Acids’ Hybrids: Design, Synthesis, In vitro, and In silico Studies” (Medicinal Chemistry (Shariqah (United Arab Emirates), 2024)
